Source: patent publication US20130005034A1, “ARTIFICIAL PEPTIDE AND USE THEREOF” (TOAGOSEI CO., LTD, priority 2008, published 2013)
Where no end group is shown, it is not given here.

What was measured:
[1] = system: human iPS cells (cell line: 201B2); assay: iPS cell membrane permeability of FITC-labeled peptides (FITC fluorescence intensity, confocal laser scanning microscopy); type: cell-based; conditions: 1 hour; for Relative Intensity (FITC fluorescence): relative to Comparative Sample 2 at 0.5 μM = 1, average of five measurements; for introduction into artificial pluripotent stem cells: 0.5 μM or 1 μM
Description: Next, the abilities of the three resulting synthesized peptides to pass through the cell membranes of artificial pluripotent stem cells (iPS cells) were investigated. Fluorescein isothiocyanate (FITC) was added beforehand to the N-terminus of each of the synthesized peptides.
The human iPS cells (cell line: 201B2) used in this example were procured from Kyoto University. The mouse embryo fibroblasts (cell line: SNL76/7) used as feeder cells were procured from ECACC, which supply the cells on commission from Dr. Allan Bradley.
The iPS cells thus acquired were cultured, using a human embryonic stem cell culture medium (DMEM/F12, containing 20% knockout serum replacement (KSR), 2 mM L-glutamine, 0.1 mM non-essential amino acids, 0.1 mM 2-mercaptoethanol, 50 units/50 μg/ml penicillin/streptomycin, and 4 ng/ml bFGF), in a 37° C., 5% CO2 environment on a gelatin-coated dish seeded with the above SNL feeder cells that had been mitomycin C-treated.
The cultured iPS cells were then treated with a CTK solution (containing 1 mg/ml collagenase IV, […], […] and 20% KSR), and recovered. Next, a suspension of microaggregates was prepared by pipetting, dispensed into each well of a commercial gelatin-coated 4-well chamber (culture) slide that had been seeded with mitomycin C-treated SNL feeder cells, and cultured in a 37° C., 5% CO2 environment for about 6 days.
The culture solution in each well was then replaced with a cell culture obtained by adding a peptide stock solution (1 mM) of any one of the above Sample 6 and Comparative Samples 1 and 2 that had been pre-labeled with FITC to a specified concentration (i.e., to a final concentration within the medium of 0.5 μM or 1 μM), and the cell culture was cultured for 1 hour in a 37° C., 5% CO2 environment.
Next, after washing with PBS, the cells within the wells were fixed with cold methanol, and were encapsulated using a DAPI-containing antifade reagent (Invitrogen).
Localization of the FITC-labeled peptides was confirmed using a confocal laser scanning microscope. Specifically, the FITC fluorescence intensity in each test group (the respective encapsulated samples to be measured) was measured by confocal laser scanning microscopic analysis. The measurement conditions were as follows.
Argon laser excitation wavelength: 488 nm
Objective lens: Plan-Apochromat 20×/0.75
The relative fluorescence intensity of each test group was calculated relative to a value of 1 for the fluorescence intensity of the test group in which Comparative Sample 2 was added to a final concentration within the culture medium of 0.5 μM. Measurement was independently carried out five times, and the average value of the five measurements was treated as the fluorescence intensity. In addition, micrographs obtained using a confocal laser scanning microscope to observe iPS cell cultures to which Sample 6 or Comparative Sample 2 was added to a final concentration of 1 μM (the above encapsulated test groups) are shown respectively in FIG. 7 (Sample 6 addition group) and FIG. 8 (Comparative Sample 2 addition group).

[2] = system: neural stem cells collected from a rat; conditions: peptide 1 μM in culture broth, 24 hours
Description: That is, these sample peptides were added to a culture broth of neural stem cells collected from a rat, and incubated. The amount of peptide added was adjusted so that the peptide concentration within the culture broth became 1 μM for each peptide.
In addition, the same sample was subjected to evaluation with a neuronal differentiation induction marker. That is, using tubulin as a marker for identifying neurons, the presence or absence of tubulin (i.e., of neurons) in the culture broth was determined by a fluorescent antibody method that uses a fluorescent dye-labeled anti-tubulin antibody for identifying this tubulin. In addition, using glial fibrillary acidic protein (GFAP), which is a cytoskeletal protein in glial cells, as a marker for identifying glial cells, the presence or absence of GFAP (i.e., of glial cells) in the culture broth was determined by a fluorescent antibody method that uses a fluorescent dye-labeled anti-GFAP antibody for identifying this GFAP.

Substance | Relative Intensity (FITC fluorescence) ([1]; 0.5 μM final concentration) | introduction into artificial pluripotent stem cells [1] | Relative Intensity (FITC fluorescence) ([1]; 1.0 μM final concentration) | differentiation to glial cells (GFAP marker) [2] | neuronal differentiation (differentiation from neural stem cells to neurons, tubulin marker) [2]
RRRRRRRRRGTLKERCLQVVRSLVK [Comparative Sample 3, VHL peptide linked through a single glycine residue to the C-terminal end of polyarginine R9] | <1 | substantially not introduced | 2.8 | – | –
SLQYLCRFVIRQYTRKKRTLRKNDRKKR-NH2 [Sample 2, SLQYLCRFVIRQYTR-KKRTLRKNDRKKR] | – | – | – | not observed | –
TLKERCLQVVRSLVKKKRTLRKNDRKKR [Sample 6] | 13.5 | – | 23.2 | – | –
KKRTLRKNDRKKR [Comparative Sample 1] | – | – | – | not observed | not observed
TLKERCLQVVRSLVKSRRHHCRSKAKRSRHH [Comparative Sample 2, VHL peptide linked to the N-terminal end of hPER1-NLS] | 1 | substantially not introduced | 4.8 | – | –
